Source: paper doi:10.1101/2025.10.10.681740, “Distinct Filament Conformation for Receptor-Bound Amyloid-ß from Alzheimer’s Disease Brain” (bioRxiv, 2025)
“Also recorded” adds a separate entry of the source.

Key:
[1] = Electron microscopy length of Aß assemblies; type: physicochemical; conditions: for length (mean ± sd): electron microscopy; for filament length, overall: human AD brain
PrP^C [2] = system: PrP^C
PrP^C [3] = system: PrP^C; remark: listed apart in the source
[4] = Size exclusion chromatography with PLISA readout; type: physicochemical; conditions: Superdex 200, purified Aß spiked in control brain TBS lysate, PLISA of fractions
Aß42 [5] = assay: Thioflavin-T polymerization of Aß42; type: biochemical
anti-Aß antibodies = assay: Immunoblot epitope profiling, receptor-bound vs sarkosyl-insoluble Aß; type: binding; conditions: n=4 AD brains; for amino-terminal epitope immunoreactivity, receptor-bound vs sarkosyl-insoluble: normalized to mid-region antibody 4G8, HFIP-monomerized
Source text: The tubes were then opened and kept in the fume hood overnight at room temperature to evaporate the HFIP. The remaining protein films were resuspended in 1X Laemmli buffer supplemented with 8 M urea. The resulting samples were separated on 4-20% gradient Criterion Tris-Glycine gels (BioRad), transferred onto the nitrocellulose membranes, blocked with Rockland fluorescent Western Blot blocking buffer and immunoprobed with the appropriate detection antibodies overnight at 4C, washed in PBST, incubated the IRdye conjugated secondary antibodies (LiCor) for 1 h at RT and imaged on the near-infrared scanner (LiCor Odyssey). Both primary and secondary antibody were diluted in Rockland fluorescent Western Blot blocking buffer. The immunoblot data quantitation was performed using the LiCor ImageStudio software.

Aß42 [6] = assay: Filament length at end of polymerization reactions (negative stain EM)
Aß = type: biochemical, mouse
[7] = system: human iPSC-derived cortical excitatory neurons; assay: Synapse loss in human iPSC-derived cortical neurons; type: cell-based; conditions: 7 days
Experimental: Human neurons derived from induced pluripotent stem cells (iPSCs) with Neurogenin2 (Ngn2) stably integrated under doxycycline control were prepared and cultured as described. Poly-D-Lysine-coated 384 well plates (Corning # 354663) were seeded with 2,000 cells in 50 μl of Classic Neuronal Media (CNR: 50% DMEM/F12 (Gibco), 50% Neurobasal-A (Gibco), 0.5X Glutamax (Gibco), 1X MEM Non-Essential Amino Acids Solution (Gibco), 0.5X B27 supplement (Gibco), 0.5X N-2 supplement (Gibco), 10 ng/ml BDNF (PeproTech), 10 ng/ml NT-3 (PeproTech), 1 μg/ml mouse Laminin (Gibco)) containing 2 μg/ml doxycycline hydrochloride (Sigma). On DIV 7 and 14, 50 μl of CNR without doxycycline hydrochloride was added to each well. Every week after that, 30 μl of media was removed from each well and replaced with 30 μL of fresh media. Cells were grown for at least 60 days before treatment with receptor-bound Aßo. […]
Image analysis was performed using ImageXpress built in analysis software, MetaXpress. […] To measure synapsin1/2 density on MAP2, the number of synaptic puncta overlapping with the MAP2 mask were counted and then divided by the area of the MAP2 mask. To measure Synapsin1/2 colocalized with homer1b/c density on MAP2, first, only the round objects of Synapsin1/2 and Homer1b/c colocalized with each other that also overlap with MAP2 were counted and divided by the MAP2 area. […]

[8] = Monomer count from cryo-EM rung spacing and length; type: physicochemical; conditions: 4.75 Å rung spacing, 65 nm length, two monomers per rung
Source text: Data sets were processed using standard amyloid helical reconstruction procedures implemented in RELION 4.0 [49]. Dose-fractionated micrograph movies were corrected for beam-induced motion using the RELION’s own implementation of motion correction. Contrast transfer function (CTF) parameters were estimated from the motion-corrected micrographs using CTFFIND-4.1 [51]. The start-end coordinates of the Aß filaments were manually marked in the aligned micrographs using RELION 4.0. Segments were extracted with an inter-box distance of 12-Å, a helical rise of 4.75 Å and using a box size of 200 pixels with 1.068 Å per pixel. Extracted segments were subjected to several rounds of reference free two-dimensional (2D) classification to remove suboptimal segments and to select for segments showing detailed features along the filament axis. A three-dimensional (3D) cylinder was generated using the “relion_helix_toolbox” utility and used as reference for an initial 3D classification of the helical segments retained after the 2D classification steps. The initial 3D classification performed on the set of optimal 2D-segments assumed a helical rise of 4.75 Å and a value of the helical twist as estimated from the crossover distances in the 2D class averages. […]

IC16 antibody = assay: IC16 capture ELISA; type: binding
[9] = design: method as in 3 sources, one per row (each row's own in cited_ref): ref 13 = [13]; PMID 9600986; doi:10.1073/pnas.95.11.6448; 13. Lambert MP , Diffusible, nonfibrillar ligands derived from Abeta1-42 are potent central nervous system neurotoxins . Proc Natl Acad Sci U S A 95 , 6448 – 6453 ( 1998 ). 9600986 10.1073/pnas.95.11. ||| ref 15 = [15]; PMID 26018073; doi:10.1074/jbc.M115.643577; 15. Kostylev MA , Prion-Protein-interacting Amyloid-beta Oligomers of High Molecular Weight Are Tightly Correlated with Memory Impairment in Multiple Alzheimer Mouse Models . J Biol Chem 290 , 17415 – ||| ref 14 = [14]; PMID 19216516; doi:10.1021/bi802046n; 14. Yu L , Structural characterization of a soluble amyloid beta-peptide oligomer . Biochemistry 48 , 1870 – 1877 ( 2009 ). 19216516 10.1021/bi802046n; conditions: cited from earlier work
PrP^C [10] = conditions: cited from earlier work
Aß species = conditions: reported; cited from earlier work
Source text: For this comparison, the PSCMA-released Aß pool prior to antibody affinity retention was compared to PSCMA-resistant material containing plaque-associated Aß. The PSCMA-resistant material was further extracted with sarkosyl, and the sarkosyl-insoluble pellet resuspended for immunoblot. The Aß ...

receptor-bound Aß = assay: Lecanemab capture ELISA; type: binding, human; conditions: Lecanemab coated plate, D54D2 detection; Extended Data Fig. 1: 5 μg/mL coating, vs isotype control and no antibody wells

With “receptor-bound Aß: PSCMA-released, IC16-immunopurified Aß filament pool from Alzheimer's disease brain” the “length (mean ± sd)” value ([1]; second of three AD brains) was 70±24.4 nm, the “length (mean ± sd)” value ([1]; third of three AD brains) was 71±29.2 nm and the “filament length, overall” value [1] was “about 65 nm”. The “filament length, overall” value ([1]; listed as Receptor-bound amyloid-ß) was 65 nm, the “PrP^C binding, summary” value (PrP^C [2]) was “binds” and the “apparent avidity for PrP^C in PLISA” value (PrP^C [2]) was “binds PrP^C with the affinity similar to that for synthetic Aß oligomeric preps (F12)”. For the same molecule, the “distance of PrP^C-associated gold particles from filament tips” value (PrP^C [3]) was at most 5 nm, the “size by migration of globular proteins” value [4] was about 650 kDa and the “maximal ThT fluorescence” value (Aß42 [5]; 20 nM monomer equivalent seeds, 5 μM Aß42, vs no seeds) was “reduced the maximal fluorescence achieved”. The “effect on Aß42 polymerization rate as seed” value (Aß42 [5]; 20 nM monomer equivalent, 5 μM Aß42, n=19 experiments, Brains A-D, vs no seeds) was “significantly slowed polymerization”, the “Aß40 reactivity, receptor-bound vs fibrillary pool” value (anti-Aß antibodies; carboxyl terminus, normalized to mid-region antibody) was “greater for Aß40 in the receptor-bound pool” and the “amino-terminal epitope immunoreactivity, receptor-bound vs sarkosyl-insoluble” value (anti-Aß antibodies) was “five-fold enriched”. For the same molecule, the “amino-terminal epitope immunoreactivity, receptor-bound vs sarkosyl-insoluble” value (anti-Aß antibodies; listed as Receptor-bound Aß) was “significant increase in the immunoreactivity with antibodies directed against N-terminus of Aß”, the “pyroglutamylated Aß reactivity, receptor-bound vs insoluble fibrillary Aß” value (anti-Aß antibodies; normalized to mid-region antibody) was “present equally in both receptor-bound Aß and insoluble fibrillary Aß” and the “length of filaments at completion of polymerization” value (Aß42 [6]; 5 μM Aß42, without seeds or with 20 nM seeds, negative stain EM) was 200-500 nm. For the same molecule, the “filament length compared with other seeds / no seeds” value (Aß42 [6]; 4 different brains, 20 nM seeds, 5 μM Aß42) was “significantly shorter”, the “amount detected in APP/PS1, Prnp−/− mice (vs WT Prnp background)” value (Aß) was “Significantly lower amount” and the “reduction of Aß released by PSCMA when PrP^C was absent” value (Aß) was “about 50%”. The “dendrite density (MAP2 area)” value ([7]; 160 pM Brain A, 80 pM Brain B, 16 pM Brain C, vs control brain fraction) was “does not change”, the “synaptic density (Synapsin1/Homer1b/c overlap at MAP2 dendrites)” value ([7]; 16-160 pM assembly (4-40 nM monomer equivalent), three AD brains vs control brain fraction) was “significantly reduced; also recorded: potently suppresses synapse density” and the “number of monomers per assembly” value [8] was “about 300”.

With “Aß42 monomers: HFIP-monomerized synthetic Aß42” the “apparent avidity for PrP^C in PLISA” value (PrP^C [2]) was “nil or at least two orders of magnitude lower”.

With “Aß42 globulomer: Globulomers of Aß42 are prepared in SDS and then isolated as stable 12-mers” the “affinity/activity in IC16 capture ELISA” value (IC16 antibody) was “much higher activity”, the “PrP^C binding, summary” value (PrP^C [2]) was “binds” and the “apparent avidity for PrP^C in PLISA” value (PrP^C [2]) was “similar”. The assembly state ([9]; prepared in SDS) was “stable 12-mers”.

In the case of “amyloid-ß derived diffusible ligands [synthetic Aß42 ADDL]”, the “PrP^C binding, summary” value (PrP^C [2]) is listed as “binds”, the “apparent MR” value ([9]; no reference at place) is listed as 500,000 and the assembly size ([9]; synthetic Aß42 in F12 media, metastable spherical assemblies) is listed as 500 kDa.

In the case of cellular prion protein [PrP^C], the “effect on Aß42 amyloid filament formation” value (Aß42 [5]) is reported as “inhibits Aß42 amyloid filament formation”, the “effect on rate of Aß42 polymerization seeded by fibrils” value (Aß42 [5]; pH 7.4) is reported as “reduced the rate of Aß42 polymerization or Aß42 polymerization seeded by fibrils” and the “effect on rate of Aß42 polymerization, unseeded” value (Aß42 [5]; pH 7.4) is reported as “reduced the rate of Aß42 polymerization”.

For amyloid-ß [Aß], the “off-rate from PrP^C” value (PrP^C [10]) is listed as “slow off-rate with a half-life of days”.

B1: Lecanemab: FDA approved anti-Aß antibody (antibody, chains of the INN, looked up, V domains shown)
VH: EVQLVESGGGLVQPGGSLRLSCSASGFTFSSFGMHWVRQAPGKGLEWVAYISSGSSTIYYGDTVKGRFTISRDNAKNSLFLQMSSLRAEDTAVYYCAREGGYYYGRSYYTMDYWGQGTTVTVSS
VL: DVVMTQSPLSLPVTPGAPASISCRSSQSIVHSNGNTYLEWYLQKPGQSPKLLIYKVSNRFSGVPDRFSGSGSGTDFTLRISRVEAEDVGIYYCFQGSHVPPTFGPGTKLEIK
For B1, the “binding preference among Aß species” value (Aß species) is given as “preferential affinity for oligomeric and protofibrillary Aß species, with less avidity for Aß filaments and minimal interaction with monomeric Aß” and the “affinity / reactivity for receptor-bound Aß” value (receptor-bound Aß) is given as “high affinity for the receptor-bound Aß species; also recorded: receptor-bound Aß is recognized by this antibody; also recorded: binds to ELISA plates coated with 5 μg/mL Lecanamab but not to wells coated with isotype control or to no antibody wells”.
